Laboratory results from paper PMC4595737, “Cyclic diguanylate monophosphate directly binds to human siderocalin and inhibits its antibacterial activity” (Nature Communications, 2015).

Experiments:
Assay type in all cases: binding
[1] = biological target: T1, Siderocalin (LCN2) (Homo sapiens, UniProt P80188); test: ITC ([…], n=[…]); UV cross-linking with c-di-[…]GMP and cold competition
T1 construct: recombinant human LCN2 (rLCN2) without a signal peptide fragment

[2] = biological target: T2, STING (Homo sapiens, UniProt Q86WV6); test: UV cross-linking with c-di-[…]GMP, SDS-PAGE autoradiography (STING as positive control)
T2 construct: gene STING1

[3] = biological target: T1, Siderocalin (LCN2); test: ITC; competition with c-di-[…]GMP cross-linking
[4] = biological target: T3, Siderocalin (LCN2), rLCN2-W79A (Homo sapiens, UniProt P80188, W99A); test: ITC
T3 construct: recombinant human LCN2 (rLCN2) without a signal peptide fragment
T3 sequence (P80188 21-198 W99A): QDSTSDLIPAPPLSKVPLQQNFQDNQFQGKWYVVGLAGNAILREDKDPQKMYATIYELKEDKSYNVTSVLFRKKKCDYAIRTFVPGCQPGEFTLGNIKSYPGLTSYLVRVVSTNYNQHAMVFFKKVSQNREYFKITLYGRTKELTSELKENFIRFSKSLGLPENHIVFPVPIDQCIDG

T1 sequence (P80188 21-198): as the sequence (P80188 21-198 W99A) above, with A79W counted along it
T2 sequence (Q86WV6 whole entry): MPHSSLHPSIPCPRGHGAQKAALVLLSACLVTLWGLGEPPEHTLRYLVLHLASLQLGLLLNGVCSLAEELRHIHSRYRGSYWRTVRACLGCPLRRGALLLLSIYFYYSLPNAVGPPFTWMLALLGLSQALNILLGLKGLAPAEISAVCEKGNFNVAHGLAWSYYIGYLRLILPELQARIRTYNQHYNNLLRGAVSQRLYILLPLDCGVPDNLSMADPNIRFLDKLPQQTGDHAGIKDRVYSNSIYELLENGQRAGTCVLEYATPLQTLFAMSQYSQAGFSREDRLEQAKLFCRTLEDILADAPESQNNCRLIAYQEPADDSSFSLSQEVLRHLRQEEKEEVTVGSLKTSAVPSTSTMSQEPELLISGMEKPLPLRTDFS

In the case of `Nc1nc2c(ncn2[C@@H]2O[C@@H]3COP(=O)(O)O[C@H]4[C@@H](O)[C@H](n5cnc6c(=O)[nH]c(N)nc65)O[C@@H]4COP(=O)(O)O[C@H]3[C@H]2O)c(=O)[nH]1` [c-di-GMP], the Kd [1] is reported as 1630 ± 50 nM and the “UV cross-linking with c-di-[32P]GMP, SDS-PAGE autoradiography (STING as positive)” value [2] is reported as “STING, as a positive control, could clearly bind to the second messenger as indicated by an autoradiograph signal”.

Work on `O=C(N[C@H]1COC(=O)[C@@H](NC(=O)c2cccc(O)c2[O-])COC(=O)[C@@H](NC(=O)c2cccc(O)c2[O-])COC1=O)c1cccc(O)c1[O-].[Fe+3]` [ferric enterobactin] yielded a Kd [3] of 240 ± 30 nM and a Kd [4] of 250 ± 50 nM.
